Reference: patent US7592160B2, “Processes for producing isomaltose and isomaltitol and use thereof” (Kabushiki Kaisha Hayashibara Seibutsu Kagaku Kenkyujo, priority 2001, dated 2009)

Legend:
[1] = test system: α-isomaltosylglucosaccharide-forming enzyme; assay: Action on saccharides as substrates (TLC), enzyme of C9 strain; type: biochemical, Bacillus globisporus C9 strain; design: key: −: it showed no change; +: it showed a slight reduction of the color spot of the substrate and the formation of other reaction product; ++: it showed a high reduction of the color spot of the substrate and the formation of other reaction product; +++: it showed a substantial disappearance of the substrate spot and the formation of other reaction product; details: two units/g substrate, substrate 2% (w/v), 30° C., pH 6.0, 24 hours
Description: (§1) To examine the saccharides in the supernatant, they were separated by developing twice on silica gel thin-layer chromatography (abbreviated as “TLC” hereinafter) using, as a developer, a mixture solution of n-butanol, pyridine, and water (=6:4:1 by volume), and, as a thin-layer plate, “[…]™ 60”, an aluminum plate (20×20 cm) for TLC commercialized by Merck & Co., Inc., Rahway, USA. The coloration of the separated total sugars by the sulfuric acid-methanol method and that of the reducing saccharides by the diphenylamine-aniline method detected a non-reducing saccharide positive at an Rf value of about 0.31 on the former detection method but negative on the latter detection method.
(§2) It was tested whether any saccharides can be used as substrates for α-isomaltosylglucosaccharide-forming enzyme. For the purpose, a solution of maltose, maltotriose, maltotetraose, maltopentaose, maltohexaose, maltoheptaose, isomaltose, isomaltotriose, panose, isopanose, α,α-trehalose, kojibiose, nigerose, neotrehalose, cellobiose, gentibiose, maltitol, maltotriitol, lactose, sucrose, erlose, selaginose, maltosyl glucoside, or isomaltosyl glucoside was prepared.
(§3) To each of the above solutions was added two units/g substrate of a purified specimen of α-isomaltosylglucosaccharide-forming enzyme from either Bacillus globisporus C9 strain obtained by the method in Experiment 4-2, Bacillus globisporus C11 strain obtained by the method in Experiment 7-2, Bacillus globisporus N75 strain obtained by the method in Experiment 11-2, or Arthrobacter globiformis A19 strain obtained by the method in Experiment 15-2, and the resulting each solution was adjusted to give a substrate concentration of 2% (w/v) and incubated at 30° C. and pH 6.0 for 24 hours, except for using pH 8.4 for the enzyme from Arthrobacter globiformis A19 strain. The enzyme solutions before and after the enzymatic reactions were respectively analyzed on TLC disclosed in Experiment 1 to confirm whether the enzymes acted on these substrates.

[2] = test system: α-isomaltosylglucosaccharide-forming enzyme; assay: Action on saccharides as substrates (TLC), enzyme of C11 strain; type: biochemical, Bacillus globisporus C11 strain; design: key: −: it showed no change; +: it showed a slight reduction of the color spot of the substrate and the formation of other reaction product; ++: it showed a high reduction of the color spot of the substrate and the formation of other reaction product; +++: it showed a substantial disappearance of the substrate spot and the formation of other reaction product; details: two units/g substrate, substrate 2% (w/v), 30° C., pH 6.0, 24 hours
Description: as §1, §2, §3

[3] = test system: α-isomaltosylglucosaccharide-forming enzyme; assay: Action on saccharides as substrates (TLC), enzyme of N75 strain; type: biochemical, Bacillus globisporus N75 strain; design: key: −: it showed no change; +: it showed a slight reduction of the color spot of the substrate and the formation of other reaction product; ++: it showed a high reduction of the color spot of the substrate and the formation of other reaction product; +++: it showed a substantial disappearance of the substrate spot and the formation of other reaction product; details: two units/g substrate, substrate 2% (w/v), 30° C., pH 6.0, 24 hours
Description: as §1, §2, §3

[4] = test system: α-isomaltosylglucosaccharide-forming enzyme; assay: Action on saccharides as substrates (TLC), enzyme of A19 strain; type: biochemical, Arthrobacter globiformis A19 strain; design: key: −: it showed no change; +: it showed a slight reduction of the color spot of the substrate and the formation of other reaction product; ++: it showed a high reduction of the color spot of the substrate and the formation of other reaction product; +++: it showed a substantial disappearance of the substrate spot and the formation of other reaction product; details: two units/g substrate, substrate 2% (w/v), 30° C., pH 8.4, 24 hours
Description: as §1, §2, §3

[5] = test system: α-isomaltosylglucosaccharide-forming enzyme; assay: Transfer-acceptor specificity, enzyme of C9 strain; type: biochemical, Bacillus globisporus C9 strain; details: acceptor 1.6%, PINE-DEX #100 donor 4%, one unit/g donor, 30° C., pH 6.0, 24 hours
Summary of the method: (§4)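 Acceptor saccharides at 1.6% with partial starch hydrolyzate donor at 4% and purified enzyme at 1 unit/g donor, d.s.b., 30 °C, 24 h, pH 6.0 (pH 8.4 for A19 enzyme). Transfer products of mono- and disaccharide acceptors analysed by GLC, of trisaccharide acceptors by HPLC with refractometer detection.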

[6] = test system: α-isomaltosylglucosaccharide-forming enzyme; assay: Transfer-acceptor specificity, enzyme of C11 strain; type: biochemical, Bacillus globisporus C11 strain; details: acceptor 1.6%, PINE-DEX #100 donor 4%, one unit/g donor, 30° C., pH 6.0, 24 hours
Summary of the method: as §4

[7] = test system: α-isomaltosylglucosaccharide-forming enzyme; assay: Transfer-acceptor specificity, enzyme of N75 strain; type: biochemical, Bacillus globisporus N75 strain; details: acceptor 1.6%, PINE-DEX #100 donor 4%, one unit/g donor, 30° C., pH 6.0, 24 hours
Summary of the method: as §4

[8] = test system: α-isomaltosylglucosaccharide-forming enzyme; assay: Transfer-acceptor specificity, enzyme of A19 strain; type: biochemical, Arthrobacter globiformis A19 strain; details: acceptor 1.6%, PINE-DEX #100 donor 4%, one unit/g donor, 30° C., pH 8.4, 24 hours
Summary of the method: as §4

[9] = test system: α-isomaltosylglucosaccharide-forming enzyme; assay: Influence of metal ions on α-isomaltosylglucosaccharide-forming enzyme activity (C9 strain); type: biochemical, Bacillus globisporus C9 strain
Experimental: (§5) About 20 L of a fresh preparation of the same liquid culture medium as used in the above seed culture were placed in a 30-L fermentor, sterilized by heating, and then cooled to 27° C. and inoculated with 1% (v/v) of the seed culture, followed by culturing at 27° C. and pH 6.0 to 8.0 for 48 hours under aeration-agitation conditions. […] These activities were assayed as follows: The activity of α-isomaltosylglucosaccharide-forming enzyme was assayed by dissolving maltotriose in 100 mM acetate buffer (pH 6.0) to give a concentration of 2% (w/v) for a substrate solution, adding a 0.5 ml of an enzyme solution to a 0.5 ml of the substrate solution, enzymatically reacting the mixture solution at 35° C. for 60 min, suspending the enzymatic reaction by boiling the solution for 10 min, and quantifying maltose, among the isomaltosyl maltose and maltose formed mainly in the reaction mixture, on HPLC disclosed in Experiment 1. One unit activity of α-isomaltosylglucosaccharide-forming enzyme is defined as the enzyme amount that forms one micromole of maltose per minute under the above enzymatic reaction conditions. Throughout the specification, the enzymatic activity of α-isomaltosylglucosaccharide-forming enzyme means the unit(s) assayed as above.
(§6) The influence of metal ions on the activity of α-isomaltosylglucosaccharide-forming enzyme was examined in the presence of 1 mM of each metal-ion according to the assay for its enzyme activity.

[10] = test system: α-isomaltosyl-transferring enzyme; assay: Influence of metal ions on α-isomaltosyl-transferring enzyme activity (C9 strain); type: biochemical, Bacillus globisporus C9 strain; details: in the presence of 1 mM of each metal-ion; None = 100
Experimental: The activity of α-isomaltosyl-transferring enzyme was assayed by dissolving panose in 100 mM acetate buffer (pH 6.0) to give a concentration of 2% (w/v) for a substrate solution, adding a 0.5 ml of an enzyme solution to 0.5 ml of the substrate solution, enzymatically reacting the mixture solution at 35° C. for 30 min, suspending the enzymatic reaction by boiling the solution for 10 min, and quantifying glucose, among the cyclotetrasaccharide and glucose formed mainly in the reaction mixture, by the glucose oxidase method. One unit activity of α-isomaltosyl-transferring enzyme is defined as the enzyme amount that forms one micromole of glucose per minute under the above enzymatic reaction conditions. Throughout the specification, the enzymatic activity of α-isomaltosyl-transferring enzyme means the unit(s) assayed as above.
The influence of metal ions on the activity of α-isomaltosyl-transferring enzyme was examined in the presence of 1 mM of each metal-ion according to the assay for its enzyme activity.

[11] = test system: α-isomaltosylglucosaccharide-forming enzyme; assay: Influence of metal ions on α-isomaltosylglucosaccharide-forming enzyme activity (C11 strain); type: biochemical, Bacillus globisporus C11 strain
[12] = test system: α-isomaltosylglucosaccharide-forming enzyme; assay: Influence of metal ions on α-isomaltosylglucosaccharide-forming enzyme activity (N75 strain); type: biochemical, Bacillus globisporus N75 strain
Experimental: as §5, §6

[13] = in the presence of 1 mM of each metal-ion, None = 100

Structure (SMILES)	Enzymatic action, Enzyme of C9 strain [1]	Enzymatic action, Enzyme of C11 strain [2]	Enzymatic action, Enzyme of N75 strain [3]	Enzymatic action, Enzyme of A19 strain [4]	Product of transferring reaction, Enzyme of C9 strain [5]	Product of transferring reaction, Enzyme of C11 strain [6]	Product of transferring reaction, Enzyme of N75 strain [7]	Product of transferring reaction, Enzyme of A19 strain [8]	effect on the enzyme activity, in words ([9]; 1 mM, Table 3)	Relative activity (%) [9, 13] [%]	Relative activity (%) [10] [%]	effect on the enzyme activity, in words ([11]; 1 mM, Table 7)	Relative activity (%) [11, 13] [%]	effect on the enzyme activity, in words ([12]; 1 mM, Table 13)	Relative activity (%) [12, 13] [%]
OC[C@H]1O[C@@H](OC[C@H]2OC(O)[C@H](O)[C@@H](O)[C@@H]2O)[C@H](O)[C@@H](O)[C@@H]1O (stereo partly drawn) [Gentibiose, gentibiose]	−	−	−	−	++ (a saccharide-transferred product was detected in an amount over ten percent through transfer reaction to acceptor)	++ (a saccharide-transferred product was detected in an amount over ten percent through transfer reaction to acceptor)	++ (a saccharide-transferred product was detected in an amount over ten percent through transfer reaction to acceptor)	+ (a saccharide-transferred product was detected in an amount over one percent but less than 10% through transfer reaction to acceptor)							
[Mn+2] [Mn^2+]									activated	111	106	activated	142	activated	120
OC[C@H]1O[C@@](CO)(O[C@H]2O[C@H](CO)[C@@H](O)[C@H](O)[C@H]2O)[C@@H](O)[C@@H]1O [Sucrose, sucrose]	−	−	−	−	++ (a saccharide-transferred product was detected in an amount over ten percent through transfer reaction to acceptor)	++ (a saccharide-transferred product was detected in an amount over ten percent through transfer reaction to acceptor)	++ (a saccharide-transferred product was detected in an amount over ten percent through transfer reaction to acceptor)	++ (a saccharide-transferred product was detected in an amount over ten percent through transfer reaction to acceptor)							
O=C[C@H](O)[C@@H](O)[C@H](O[C@@H]1O[C@H](CO)[C@@H](O)[C@H](O)[C@H]1O)[C@H](O)CO [Cellobiose, cellobiose]	−	−	−	−	++ (a saccharide-transferred product was detected in an amount over ten percent through transfer reaction to acceptor)	++ (a saccharide-transferred product was detected in an amount over ten percent through transfer reaction to acceptor)	++ (a saccharide-transferred product was detected in an amount over ten percent through transfer reaction to acceptor)	++ (a saccharide-transferred product was detected in an amount over ten percent through transfer reaction to acceptor)							
OC[C@H]1O[C@H](O[C@H]2O[C@H](CO)[C@@H](O)[C@H](O)[C@H]2O)[C@H](O)[C@@H](O)[C@@H]1O [Trehalose, α,α-trehalose]	−	−	−	−	++ (a saccharide-transferred product was detected in an amount over ten percent through transfer reaction to acceptor)	++ (a saccharide-transferred product was detected in an amount over ten percent through transfer reaction to acceptor)	++ (a saccharide-transferred product was detected in an amount over ten percent through transfer reaction to acceptor)	++ (a saccharide-transferred product was detected in an amount over ten percent through transfer reaction to acceptor)							
